From patent publication EP0435946B1, “METHODS FOR MODIFYING THE BINDING OF CELL ADHESION RECEPTORS” (LA JOLLA CANCER RESEARCH FOUNDATION, priority 1988, dated 1990)

Columns and labels:
fibronectin receptor [1] = molecular target: T1, fibronectin receptor (Homo sapiens, UniProt P05556+P08648); assay: Attachment of fibronectin receptor liposomes to fibronectin-coated wells in the presence of cations; assay type: binding; parameters: from tissue; host or cells: human placenta; settings: for fibronectin receptor liposome attachment, result in words: compared with Ca²⁺, Ca²⁺ and Mg²⁺, or absence of Ca²⁺ or Mg²⁺; for % Attachment: cations 1 mM, percentage of control attachment in 1 mM CaCl₂ and 1 mM MgCl₂, mean and standard error, three experiments
Source text: The effect of cations on the binding of the fibronectin receptor to its ligand was studied by incorporating the receptor into liposomes and measuring receptor liposome attachment to a fibronectin-coated surface in the presence of various cations.
(§1) Fibronectin receptors were purified from human placenta by affinity chromatography on a 110 kDa chymotryptic fragment of fibronectin, according to the methods of Pytela et al., Cell 40:191 (1985), and Pytela et al., Meth. Enzymol. 144:475-489 (1987), with the following modifications. The 110 kDa fragment corresponds to the 120 kDa fragment described in Pytela et al. (1985), supra. […] Briefly, homogenized placental tissue was washed once with 2 volumes of cold TBS containing 1 mM CaCl₂, 1 mM MgCl₂ and 3 mM phenylmethyl sulfonyl fluoride (PMSF), centrifuged, and the pellet was extracted with 1 volume of cold TBS containing 100 mM octyl-β-D-glucopyranoside (Calbiochem, La Jolla, CA), and calcium, magnesium, and PMSF as in Pytela et al., (1985) supra. The clear extract was slowly applied at 4°C, first to a column of plain Sepharose, and then to 110 kDa fibronectin fragment-Sepharose. […] Bound receptor was eluted with the wash buffer containing 20 mM EDTA in place of calcium and magnesium. Eluted receptor was used immediately for the preparation of receptor liposomes or stored frozen. In some experiments, 1 mM MnCl₂ was substituted for CaCl₂ and MgCl₂ throughout the isolation procedure.
Aliquots of the receptor liposome preparation were mixed with the indicated cations (1 mM) and the attachment of the liposomes to microtiter wells coated with fibronectin was assayed. The results are expressed as a percentage of control attachment, which was measured in the presence of 1 mM CaCl₂ and 1 mM MgCl₂. Mean and standard error from three experiments are shown.

[2] = molecular target: T2, vitronectin receptor (VNR) (Homo sapiens, UniProt P05106+P06756); assay: Inhibition by Gd3+ of vitronectin receptor liposome attachment; assay type: binding; settings: for % Inhibition VNR: 1 mM CaCl₂ and 1 mM MgCl₂
T2 construct: Vitronectin receptor was purified from human placenta; from tissue; host or cells: human placenta
Procedure: (§2) The ability of Gd³⁺ to inhibit the binding of integrins was assayed in the liposome attachment system. Fibronectin receptor (FNR) and vitronectin receptor (VNR) liposomes were prepared by dialysis against TBS containing 1 mM CaCl₂ and 1 mM MgCl₂. Aliquots of GdCl₃ were added to the liposomes at the start of the assay. […] Such situations include binding of inflammatory cells at the site of a tissue injury caused by, for example, an ischemic episode, such as is associated with a cardiac or brain infarct.

[3] = molecular target: T3, Fibronectin receptor (FNR) (Homo sapiens, UniProt P05556+P08648); assay: Inhibition by Gd3+ of fibronectin receptor liposome attachment; assay type: binding; settings: for % Inhibition FNR: 1 mM CaCl₂ and 1 mM MgCl₂
T3 construct: from tissue; host or cells: human placenta
Procedure: as §2

Type I collagen receptor = Type I collagen receptor liposome binding to collagen; parameters: species or system human
Source text: Type I collagen receptor was also isolated from placenta, employing the method given in Example I with the following modifications. Mn²⁺ was used in the chromatography buffers for this procedure, and the affinity matrix contained Type I collagen.

A375M cells [4] = test system: A375M cells
fibronectin receptor [5] = molecular target: T1, fibronectin receptor; assay: Attachment of fibronectin receptor liposomes to fibronectin-coated wells in the presence of cations; assay type: binding; parameters: from tissue; host or cells: human placenta; settings: for binding of fibronectin receptor liposomes to fibronectin, multiple of binding measured in Ca²⁺ alone: in 1mM Ca²⁺; for binding of fibronectin receptor liposomes to fibronectin, multiple of binding measured in Ca²⁺ alone / binding of fibronectin receptor liposomes to fibronectin, multiple of binding measured in Mg²⁺ alone: mean and standard error, two experiments; for binding of fibronectin receptor liposomes to fibronectin, multiple of binding measured in Mg²⁺ alone: in 1mM Mg²⁺
fibronectin receptor [6] = molecular target: T1, fibronectin receptor; settings: Mn²⁺ versus Ca²⁺/Mg²⁺
fibronectin receptor [7] = molecular target: T1, fibronectin receptor; assay: Yield of fibronectin receptor from affinity chromatography on 110 kDa fibronectin fragment, densitometry of SDS-PAGE; parameters: from tissue; host or cells: human placenta
Procedure: as §1
Fibronectin receptor can be isolated by affinity chromatography on the 110 kDa fibronectin fragment (See Pytela, et al., (1985), (1987), supra). […]

Vitronectin receptor = molecular target: T4, Vitronectin receptor (Homo sapiens, UniProt P05106+P06756); assay: Vitronectin receptor liposome attachment to vitronectin; assay type: binding; settings: a number of liposome attachment assays
T4 construct: Vitronectin receptor was purified from human placenta; from tissue; host or cells: human placenta
Procedure: Vitronectin receptor was purified from human placenta as described in Example I for the fibronectin receptor, but a different affinity matrix containing the peptide Gly-Arg-Gly-Asp-Ser-Pro-Lys was employed. The peptide was synthesized with an Applied Biosystems Model 430A, according to the manufacturer's instructions. Vitronectin receptor was isolated according to the method of Example I in the presence of 1 mM Ca²⁺ and 1mM Mg²⁺ or in 1 mM Ca²⁺ alone. In a number of liposome attachment assays, Mn²⁺ enhanced the binding of this integrin to vitronectin by 20-50% over the binding measured in Ca²⁺ and Mg²⁺.

A375M cells [8] = assay: In vitro wound model of cell migration on ligand-coated cell-free lanes; assay type: cell-based, human; settings: 100 µM MnCl₂ in media with Ca²⁺ and Mg²⁺; spaces coated with fibronectin and Type IV collagen; versus controls
Procedure: An in vitro wounding assay was developed to test the effects of Mn²⁺ on cell migration into a wounded (cell free) area that was coated with various adhesion proteins. This assay allowed the determination of the specific ligands and the respective receptors that are involved in the migration process. More specifically, this assay was used to test cell migration on various substrates in the presence of Mn²⁺. A375M cells were grown to confluency in 6 well culture dishes (Corning, New York, NY). A specially designed comb which scratches out 4-2mm wide lanes was used to make a crossing pattern in the cell layer, removing the cells. The cell-free lanes were then coated for 1 hour at 37°C with one of the following ligands: fibronectin, vitronectin, Type I or Type IV collagen, bovine serum albumin or laminin. These proteins were dissolved in PBS at a concentration of 10µg/ml and then added directly to the wounded cell layer.
Standard Culture Media containing Ca²⁺ and Mg²⁺ and 100 µM MnCl₂ was added to the culture dishes while control dishes had the same media without Mn²⁺. Cell migration was monitored by visualization.

T1 sequence (P08648 42-894 limits assumed): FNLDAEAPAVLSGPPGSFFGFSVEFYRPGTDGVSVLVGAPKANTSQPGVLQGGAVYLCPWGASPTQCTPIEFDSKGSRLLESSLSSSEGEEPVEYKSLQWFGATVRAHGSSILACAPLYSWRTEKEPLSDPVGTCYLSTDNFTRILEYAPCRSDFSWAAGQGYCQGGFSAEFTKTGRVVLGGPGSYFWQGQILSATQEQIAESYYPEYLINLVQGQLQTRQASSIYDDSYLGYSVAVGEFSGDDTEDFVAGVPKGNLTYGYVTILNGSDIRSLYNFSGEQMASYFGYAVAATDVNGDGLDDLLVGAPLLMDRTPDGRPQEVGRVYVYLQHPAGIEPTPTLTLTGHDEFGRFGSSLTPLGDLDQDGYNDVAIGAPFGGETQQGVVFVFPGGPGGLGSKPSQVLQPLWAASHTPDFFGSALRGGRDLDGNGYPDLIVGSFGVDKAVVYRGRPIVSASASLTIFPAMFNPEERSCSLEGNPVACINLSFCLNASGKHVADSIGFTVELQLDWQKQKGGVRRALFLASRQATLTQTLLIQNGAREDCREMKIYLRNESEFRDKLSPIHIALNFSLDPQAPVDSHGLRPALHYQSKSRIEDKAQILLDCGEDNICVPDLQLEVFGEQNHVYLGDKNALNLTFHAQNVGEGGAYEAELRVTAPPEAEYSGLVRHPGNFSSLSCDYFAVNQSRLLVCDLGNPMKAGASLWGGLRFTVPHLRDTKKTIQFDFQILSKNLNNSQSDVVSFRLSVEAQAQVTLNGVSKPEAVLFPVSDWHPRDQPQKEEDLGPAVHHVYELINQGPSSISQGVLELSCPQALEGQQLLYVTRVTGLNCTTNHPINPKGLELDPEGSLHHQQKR
T1 sequence (P08648 895-1049 partner limits assumed): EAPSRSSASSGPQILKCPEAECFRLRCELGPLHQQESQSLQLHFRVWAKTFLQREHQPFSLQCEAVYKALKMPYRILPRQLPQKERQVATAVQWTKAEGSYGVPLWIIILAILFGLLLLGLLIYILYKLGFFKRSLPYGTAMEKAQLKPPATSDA
T1 sequence (P05556 21-798): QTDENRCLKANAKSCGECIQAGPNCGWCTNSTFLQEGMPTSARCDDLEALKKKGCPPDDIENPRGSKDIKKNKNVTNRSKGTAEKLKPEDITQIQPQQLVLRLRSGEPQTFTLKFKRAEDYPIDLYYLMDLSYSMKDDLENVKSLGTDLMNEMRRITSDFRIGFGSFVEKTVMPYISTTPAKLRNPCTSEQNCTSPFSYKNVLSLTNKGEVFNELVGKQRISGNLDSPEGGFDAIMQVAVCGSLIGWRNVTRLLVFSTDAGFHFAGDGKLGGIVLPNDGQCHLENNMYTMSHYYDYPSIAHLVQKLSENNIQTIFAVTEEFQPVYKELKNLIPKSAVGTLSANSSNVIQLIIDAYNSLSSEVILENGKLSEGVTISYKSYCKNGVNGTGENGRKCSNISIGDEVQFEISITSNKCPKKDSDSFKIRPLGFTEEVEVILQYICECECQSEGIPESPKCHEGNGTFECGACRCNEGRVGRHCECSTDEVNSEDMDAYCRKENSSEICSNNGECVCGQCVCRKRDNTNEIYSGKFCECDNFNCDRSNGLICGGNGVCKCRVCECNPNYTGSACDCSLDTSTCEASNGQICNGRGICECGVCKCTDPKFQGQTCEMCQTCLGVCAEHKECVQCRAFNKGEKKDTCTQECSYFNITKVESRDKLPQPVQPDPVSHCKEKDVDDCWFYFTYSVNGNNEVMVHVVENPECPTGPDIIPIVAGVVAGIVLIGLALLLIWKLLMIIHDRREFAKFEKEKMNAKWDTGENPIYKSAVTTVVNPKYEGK
T3 sequence (P08648 42-894 limits assumed): as the sequence (P08648 42-894 limits assumed) above
T3 sequence (P08648 895-1049 partner limits assumed): as the sequence (P08648 895-1049 partner limits assumed) above
T3 sequence (P05556 21-798): as the sequence (P05556 21-798) above
T2 sequence (P06756 31-889 limits assumed): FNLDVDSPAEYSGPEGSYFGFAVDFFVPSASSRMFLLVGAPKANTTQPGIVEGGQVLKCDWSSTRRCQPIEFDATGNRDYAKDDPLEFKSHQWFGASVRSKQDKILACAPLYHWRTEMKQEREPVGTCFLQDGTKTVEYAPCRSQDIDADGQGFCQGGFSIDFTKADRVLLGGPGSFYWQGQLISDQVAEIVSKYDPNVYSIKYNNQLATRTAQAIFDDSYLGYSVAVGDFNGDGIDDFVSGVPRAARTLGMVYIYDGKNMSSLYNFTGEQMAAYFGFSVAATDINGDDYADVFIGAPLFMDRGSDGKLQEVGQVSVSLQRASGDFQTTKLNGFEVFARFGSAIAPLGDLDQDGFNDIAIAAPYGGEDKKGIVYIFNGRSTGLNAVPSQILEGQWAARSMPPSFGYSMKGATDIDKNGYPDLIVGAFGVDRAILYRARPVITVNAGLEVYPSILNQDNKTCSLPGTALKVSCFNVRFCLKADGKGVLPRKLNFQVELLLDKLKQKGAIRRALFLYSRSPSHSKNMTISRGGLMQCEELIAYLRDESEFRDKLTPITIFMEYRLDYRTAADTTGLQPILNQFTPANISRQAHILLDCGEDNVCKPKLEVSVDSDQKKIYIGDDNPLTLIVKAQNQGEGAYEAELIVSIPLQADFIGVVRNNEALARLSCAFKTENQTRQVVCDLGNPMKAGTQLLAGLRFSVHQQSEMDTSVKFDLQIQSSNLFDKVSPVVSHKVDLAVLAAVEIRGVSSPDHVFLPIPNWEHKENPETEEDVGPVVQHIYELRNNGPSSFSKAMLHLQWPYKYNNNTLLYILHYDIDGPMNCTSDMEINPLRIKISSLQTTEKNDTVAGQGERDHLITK
T2 sequence (P06756 891-1048 partner limits assumed): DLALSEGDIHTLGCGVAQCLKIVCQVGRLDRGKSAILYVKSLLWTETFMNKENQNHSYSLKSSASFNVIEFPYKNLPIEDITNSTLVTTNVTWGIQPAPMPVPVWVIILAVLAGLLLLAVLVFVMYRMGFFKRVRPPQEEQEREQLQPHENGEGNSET
T2 sequence (P05106 27-788): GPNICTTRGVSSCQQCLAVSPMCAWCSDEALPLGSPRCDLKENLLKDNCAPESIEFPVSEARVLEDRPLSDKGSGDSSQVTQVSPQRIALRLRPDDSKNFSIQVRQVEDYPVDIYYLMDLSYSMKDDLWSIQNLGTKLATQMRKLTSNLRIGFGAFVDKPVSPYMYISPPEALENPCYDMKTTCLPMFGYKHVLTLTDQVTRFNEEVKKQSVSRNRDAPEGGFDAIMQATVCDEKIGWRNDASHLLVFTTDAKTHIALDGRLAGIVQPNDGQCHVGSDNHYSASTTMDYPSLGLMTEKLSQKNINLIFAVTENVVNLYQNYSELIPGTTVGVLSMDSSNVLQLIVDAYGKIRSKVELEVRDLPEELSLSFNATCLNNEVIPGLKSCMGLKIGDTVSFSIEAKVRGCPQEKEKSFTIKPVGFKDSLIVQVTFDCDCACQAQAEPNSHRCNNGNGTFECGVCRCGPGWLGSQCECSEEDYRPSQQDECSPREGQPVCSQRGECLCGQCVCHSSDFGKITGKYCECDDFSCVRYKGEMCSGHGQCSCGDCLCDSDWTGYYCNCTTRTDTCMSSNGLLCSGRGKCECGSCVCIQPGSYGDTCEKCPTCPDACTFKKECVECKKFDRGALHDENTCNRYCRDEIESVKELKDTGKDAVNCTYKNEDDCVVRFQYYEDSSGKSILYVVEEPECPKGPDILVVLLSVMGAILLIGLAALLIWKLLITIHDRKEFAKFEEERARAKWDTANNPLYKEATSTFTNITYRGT
T4 sequence (P06756 31-889 limits assumed): as the sequence (P06756 31-889 limits assumed) above
T4 sequence (P06756 891-1048 partner limits assumed): as the sequence (P06756 891-1048 partner limits assumed) above
T4 sequence (P05106 27-788): as the sequence (P05106 27-788) above

## [Ba+2] [Ba²⁺]
Fibronectin receptor [1]
  fibronectin receptor liposome attachment, result in words: produced less attachment than Ca²⁺, but did support fibronectin receptor attachment above the level found in the absence of either Ca²⁺ or Mg²⁺

## [Be+2] [Be²⁺]
Fibronectin receptor [1]
  fibronectin receptor liposome attachment, result in words: produced less attachment than Ca²⁺, but did support fibronectin receptor attachment above the level found in the absence of either Ca²⁺ or Mg²⁺

## [Ca+2].[Cl-].[Cl-] [Ca²⁺, CaCl₂, reference compound]
Fibronectin receptor [1]
  % Attachment: 75 ± 10%

## [Cd+2] [Cd²⁺]
Fibronectin receptor [1]
  % Attachment: 130 ± 30%
  fibronectin receptor liposome attachment, result in words: increased the percentage of attachment above that obtained in the presence of Ca²⁺ and Mg²⁺

## [Co+2] [Co²⁺]
Fibronectin receptor [1]
  % Attachment: 150 ± 13%
  fibronectin receptor liposome attachment, result in words: increased the percentage of attachment above that obtained in the presence of Ca²⁺ and Mg²⁺

## [Cu+2] [Cu²⁺]
Fibronectin receptor [1]
  fibronectin receptor liposome attachment, result in words: produced increased attachment above that found in the absence of Ca²⁺ or Mg²⁺ in at least one experiment

## [Fe+2] [Fe²⁺]
Fibronectin receptor [1]
  fibronectin receptor liposome attachment, result in words: produced less attachment than Ca²⁺, but did support fibronectin receptor attachment above the level found in the absence of either Ca²⁺ or Mg²⁺

## [Cl][Gd]([Cl])[Cl] [Gd³⁺, GdCl₃]
[2]; Gd³⁺ 0.1 mM
  % Inhibition VNR: 0%
[2]; Gd³⁺ 0.3 mM
  % Inhibition VNR: 59%
[2]; Gd³⁺ 1 mM
  % Inhibition VNR: 93%
[2]; Gd³⁺ 3 mM
  % Inhibition VNR: 100%
[2]; concentrations above 0.3 mM
  attachment of vitronectin receptor to its ligand, result in words: significant decrease in attachment
[3]; Gd³⁺ 0.1 mM
  % Inhibition FNR: 8%
[3]; Gd³⁺ 0.3 mM
  % Inhibition FNR: 61%
[3]; Gd³⁺ 1 mM
  % Inhibition FNR: 91%
[3]; Gd³⁺ 3 mM
  % Inhibition FNR: 87%
[3]; concentrations above 0.3 mM
  attachment of fibronectin receptor to its ligand, result in words: significant decrease in attachment
Fibronectin receptor [1]
  fibronectin receptor liposome attachment, result in words: produced increased attachment above that found in the absence of Ca²⁺ or Mg²⁺ in at least one experiment

## [La+3] [La³⁺]
Fibronectin receptor [1]
  fibronectin receptor liposome attachment, result in words: produced increased attachment above that found in the absence of Ca²⁺ or Mg²⁺ in at least one experiment

## [Cl-].[Cl-].[Mg+2] [Mg²⁺, MgCl₂, reference compound]
Fibronectin receptor [1]
  % Attachment: 110 ± 5%

## [Cl][Mn][Cl] [Mn²⁺, MnCl₂]
Type I collagen receptor
  binding of Type I collagen receptor liposomes to collagen, result in words: clear and specific binding to collagen
A375M cells [4]; 100 µM MnCl₂, after 72 hours
  increase in invasion / migration of cells: 30%
A375M cells [4]; concentrations higher than 100 µM
  effect on cell viability and migration: cell viability is affected and therefore migration is reduced
Fibronectin receptor [5]; 0.01 mM Mn²⁺ added
  binding of fibronectin receptor liposomes to fibronectin, multiple of binding measured in Ca²⁺ alone: 1.23 ± 0.66
  binding of fibronectin receptor liposomes to fibronectin, multiple of binding measured in Mg²⁺ alone: 0.97 ± 0.17
Fibronectin receptor [5]; 0.1mM Mn²⁺ added
  binding of fibronectin receptor liposomes to fibronectin, multiple of binding measured in Ca²⁺ alone: 4.41 ± 0.33
  binding of fibronectin receptor liposomes to fibronectin, multiple of binding measured in Mg²⁺ alone: 2.04 ± 0.08
Fibronectin receptor [5]; 1 mM Mn²⁺ added
  binding of fibronectin receptor liposomes to fibronectin, multiple of binding measured in Ca²⁺ alone: 5.78 ± 0.47
  binding of fibronectin receptor liposomes to fibronectin, multiple of binding measured in Mg²⁺ alone: 3.12 ± 0.10
Fibronectin receptor [5]; cation titration, Figure 1
  concentration at which liposome attachment was promoted (as low as): 3 µM
Fibronectin receptor [6]; ligand 110 kDa fibronectin fragment
  factor of increase of the relative affinity of the receptor for the fragment: 4.5
Fibronectin receptor [6]; ligand GRGDSP
  factor of increase of the relative receptor affinity for the peptide: 50
Fibronectin receptor [7]; 1 mM Mn²⁺ substituted for Ca²⁺/Mg²⁺, estimated by densitometry
  yield of receptor with Mn²⁺ relative to Ca²⁺ and Mg²⁺: four-fold higher
Fibronectin receptor [7]; cations 1 mM in chromatography buffers, Coomassie blue gels scanned
  Receptor Peak Area: 18.2
Vitronectin receptor
  enhancement of binding to vitronectin over the binding measured in Ca²⁺ and Mg²⁺: 20-50%
A375M cells [8]
  migration into cell-free spaces, result in words: augmented migration
Fibronectin receptor [1]
  % Attachment: 210 ± 29%
Fibronectin receptor [1]; receptor isolated with Mn²⁺
  binding of receptor isolated with Mn²⁺ in the liposome attachment assay, Mn²⁺ versus Ca²⁺/Mg²⁺: several times higher

## [Ni+2] [Ni²⁺]
Fibronectin receptor [1]
  % Attachment: 100 ± 12%
  fibronectin receptor liposome attachment, result in words: as effective as the combination of Ca²⁺ and Mg²⁺

## [Sr+2] [Sr²⁺]
Fibronectin receptor [1]
  fibronectin receptor liposome attachment, result in words: produced increased attachment above that found in the absence of Ca²⁺ or Mg²⁺ in at least one experiment

## [Zn+2] [Zn²⁺]
Fibronectin receptor [1]; one similar assay
  attachment, % of the control value: 128%
